target: Hedgehog signalling pathway; assay: Gli-reporter NIH3T3 luciferase assay (Hedgehog pathway inhibition); assay type: cell-based; details: Gli-reporter NIH-3T3 cells, recombinant mouse sonic hedgehog, 24 hours, luminescence; read-out: Gli luc IC50
Procedure: In vitro biological evaluation of compounds of the invention was carried out using the procedure detailed below. The procedure provides activity data for the compounds of the invention against the Hedgehog signalling pathway. The activity is represented as IC50 values in Table 12 below.
The Gli-reporter NIH3T3 cell line (BPS Biosciences) was grown according to the suppliers recommendations. Briefly, cells were maintained in growth medium (DMEM supplemented with 10% calf serum, 1% Penicillin/Streptomycin, and 500 µg/mL of Geneticin) and grown at 37° C., 5% CO2. In order to passage cells they were first rinsed with phosphate buffered saline before the addition of 0.05% Trypsin/EDTA. Fresh growth media was added and the cells were transferred to a centrifuge tube, spun and resuspended at an appropriate cell density.
Gli-reporter NIH-3T3 cells were seeded at 20,000 cells/well into 96 well, poly-D-lysine coated white clear bottomed full area TC plates in growth media (without geneticin). Three wells were left with just media as cell free controls. Cells were then incubated for 24 hours at 37° C. in a 5% CO2.
Serial dilutions of the test compounds were prepared in 100% DMSO. 10 μl of compound or DMSO from each well was pipetted into a sterile, 0.5 ml deep well conical bottomed 96 well plate (intermediate plate). 190 μl of warmed assay media (Opti-MEM supplemented with 0.5% calf serum, 1% non-essential amino acids, 1 mM sodium pyruvate, 10 mM HEPES, 1% penicillin/Streptomycin) was then added to each well and mixed five times at 180 μl by electronic pipette to ensure homogeneity of the compound solution. This 1:20 dilution gives a top concentration of 50 μM in 5% DMSO, 95% assay media. 10 μl was pipetted from each well of the intermediate plate into a second deep well sterile plate. 490 μl of warm assay media was then added to each well and mixed five times at 300 μl. This gives a final top concentration of 1 μM in 0.1% DMSO.
After the 24 hour incubation, media was carefully removed by pipette and replaced with 45 μl of compound dilutions in triplicate. This was incubated for one hour at 37° C. in a 5% CO2. After an hour, 5 μl 10 μg/mL recombinant mouse sonic hedgehog (R&D Systems) was added to each well and the plates were incubated for a further 24 hours at 37° C., 5% CO2.
After 24 hours, plates were removed from the incubator and left to acclimatise to room temperature for 20 minutes. 50 μl of OneGLO assay reagent (Promega) was then added to each well and the plates gently shaken for a further 30 minutes. Plates were then read for luminescence on the EnVision plate reader (PerkinElmer).

Row | IC50 [nM] | Molecule
1 | > 200 | 1-[4,5-dimethyl-6-(2-methylpyrazol-yl)pyridazin-3-yl]-N-methyl-N-[[2-(trifluoromethoxy)phenyl]methyl]piperidin-4-amine [Example 89]

same assay, conditions: NIH3T3; Gli-reporter NIH-3T3 cells, recombinant mouse sonic hedgehog, 24 hours, luminescence; read-out: Category (Hedgehog pathway inhibition activity, IC50)

Row | IC50 [nM] | Molecule
2 | < 10 | Cn1nccc1-c1nnc(N2CCC(NC(=O)Nc3cccc(F)c3)CC2)c2ccccc12 [Example 16, 1-(3-fluorophenyl)-3-[1-[4-(2-methylpyrazol-3-yl)phthalazin-1-yl]-4-piperidyl]urea]
3 | < 10 | Cn1nccc1-c1nnc(N2CCC(NC(=O)Nc3ccccc3C(F)(F)F)CC2)c2ccccc12 [Example 21, 1-[1-[4-(2-methylpyrazol-3-yl)phthalazin-1-yl]-4-piperidyl]-3-[2-(trifluoromethyl)phenyl]urea]
4 | 10 to 200 | COc1cccc(CNC2CCN(c3nnc(-c4ccnn4C)c4ccccc34)CC2)c1 [Example 70, N-[(3-methoxyphenyl)methyl]-1-[4-(2-methylpyrazol-3-yl)phthalazin-1-yl]piperidin-4-amine]
5 | < 10 | Cn1nccc1-c1nnc(N2CCC(NC(=O)Nc3cccc(C(F)(F)F)c3)CC2)c2ccccc12 [Example 13, 1-[1-[4-(2-methylpyrazol-3-yl)phthalazin-1-yl]-4-piperidyl]-3-[3-(trifluoromethyl)phenyl]urea]
6 | 10 to 200 | Cn1nccc1-c1nnc(N2CCC(NC(=O)OC(C)(C)C)CC2)c2ccccc12 [Example 66, tert-butyl N-[1-[4-(2-methylpyrazol-3-yl)phthalazin-1-yl]-4-piperidyl]carbamate]
7 | 10 to 200 | Cn1nccc1-c1nnc(N2CCC(NCc3ccc(C(F)(F)F)cc3)CC2)c2ccccc12 [Example 37, 1-[4-(2-methylpyrazol-3-yl)phthalazin-1-yl]-N-[[4-(trifluoromethyl)phenyl]methyl]piperidin-4-amine]
8 | 10 to 200 | Cn1nccc1-c1nnc(N2CCC(NCc3ccccc3[N+](=O)[O-])CC2)c2ccccc12 [Example 31, 1-[4-(2-methylpyrazol-3-yl)phthalazin-1-yl]-N-[(2-nitrophenyl)methyl]piperidin-4-amine]
9 | 10 to 200 | Cn1nccc1-c1nnc(N2CCC(NCc3cccc(F)c3)CC2)c2ccccc12 [Example 73, N-[(3-fluorophenyl)methyl]-1-[4-(2-methylpyrazol-3-yl)phthalazin-1-yl]piperidin-4-amine]
10 | 10 to 200 | COc1cccc(CN(C)C2CCN(c3nnc(-c4ccnn4C)c4ccccc34)CC2)c1 [Example 62, N-[(3-methoxyphenyl)methyl]-N-methyl-1-[4-(2-methylpyrazol-3-yl)phthalazin-1-yl]piperidin-4-amine]
11 | 200 to 2000 | COc1ccc(CN(C)C2CCN(c3nnc(-c4ccnn4C)c4ccccc34)CC2)cc1 [Example 63, (4-methoxyphenyl)methyl-methyl-[1-[4-(2-methylpyrazol-3-yl)phthalazin-1-yl]-4-piperidyl]ammonium]
12 | 10 to 200 | CN(Cc1ccccc1)C1CCN(c2nnc(-c3ccnn3C)c3ccccc23)CC1 [Example 59, N-benzyl-N-methyl-1-[4-(2-methylpyrazol-3-yl)phthalazin-1-yl]piperidin-4-amine]
13 | 10 to 200 | CN(Cc1ccc(F)nc1F)C1CCN(c2nnc(-c3ccnn3C)c3ccccc23)CC1 [Example 27, N-[(2,6-difluoro-3-pyridyl)methyl]-N-methyl-1-[4-(2-methylpyrazol-3-yl)phthalazin-1-yl]piperidin-4-amine]
14 | < 10 | Cn1nccc1-c1nnc(N2CCC(NC(=O)Nc3cccc(C#N)c3)CC2)c2ccccc12 [Example 22, 1-(3-cyanophenyl)-3-[1-[4-(2-methylpyrazol-3-yl)phthalazin-1-yl]-4-piperidyl]urea]

same assay, conditions: NIH3T3; Gli-reporter NIH-3T3 cells, recombinant mouse sonic hedgehog, 24 hours, luminescence; read-out: Gli Luc nM (IC50)

Row | IC50 [nM] | Molecule
15 | 5.12 | Cc1c(-c2ccnn2C)nnc(N2CCC(N(C)C(=O)Nc3ccc(F)cc3C(F)(F)F)CC2)c1C [Example 151, 1-[1-[4,5-dimethyl-6-(2-methylpyrazol-3-yl)pyridazin-3-yl]-4-piperidyl]-3-[4-fluoro-2-(trifluoromethyl)phenyl]-1-methyl-urea]

same assay, conditions: NIH3T3; Gli-reporter NIH-3T3 cells, recombinant mouse sonic hedgehog, 24 hours, luminescence; read-out: Gli luc IC50

Row | IC50 [nM] | Molecule
16 | 10 to 200 | Cc1c(-c2ccnn2C)nnc(N2CCC(N(C)Cc3cccc(OC(F)(F)F)c3)CC2)c1C [Example 83, 1-[4,5-dimethyl-6-(2-methylpyrazol-3-yl)pyridazin-3-yl]-N-methyl-N-[[3-(trifluoromethoxy)phenyl]methyl]piperidin-4-amine]
17 | 10 to 200 | Cc1c(-c2ccnn2C)nnc(N2CCC(N(C)C(=O)Nc3ccccc3F)CC2)c1C [Example 126, 1-[1-[4,5-dimethyl-6-(2-methylpyrazol-3-yl)pyridazin-3-yl]-4-piperidyl]-3-(2-fluorophenyl)-1-methyl-urea]
18 | < 10 | Cc1c(-c2ccnn2C)nnc(N2CCC(N(C)C(=O)Nc3ccc(F)cc3C(F)(F)F)CC2)c1C [Example 151, 1-[1-[4,5-dimethyl-6-(2-methylpyrazol-3-yl)pyridazin-3-yl]-4-piperidyl]-3-[4-fluoro-2-(trifluoromethyl)phenyl]-1-methyl-urea]
19 | 10 to 200 | Cc1c(-c2ccnn2C)nnc(N2CCC(N(C)Cc3ccccc3C(F)(F)F)CC2)c1C [Example 84, 1-[4,5-dimethyl-6-(2-methylpyrazol-3-yl)pyridazin-3-yl]-N-methyl-N-[[2-(trifluoromethyl)phenyl]methyl]piperidin-4-amine]
20 | < 10 | Cn1nccc1-c1nnc(N2CCC(NCc3cccnc3C(F)(F)F)CC2)c2ccccc12 [Example 155, 1-[4-(2-methylpyrazol-3-yl)phthalazin-1-yl]-N-[[2-(trifluoromethyl)-3-pyridyl]methyl]piperidin-4-amine]
21 | > 200 | Cc1c(-c2ccnn2C)nnc(N2CCC(N(C)Cc3ccnnc3)CC2)c1C [Example 90, 1-[4,5-dimethyl-6-(2-methylpyrazol-3-yl)pyridazin-3-yl]-N-methyl-N-(pyridazin-4-ylmethyl)piperidin-4-amine]
22 | 10 to 200 | Cc1c(-c2ccncc2)nnc(N2CCC(NCc3ccc(F)cc3C(F)(F)F)CC2)c1C [Example 123, 1-[4,5-dimethyl-6-(4-pyridyl)pyridazin-3-yl]-N-[[4-fluoro-2-(trifluoromethyl)phenyl]methyl]piperidin-4-amine]
23 | 10 to 200 | CSc1nccc(CN(C)C2CCN(c3nnc(-c4ccnn4C)c4ccccc34)CC2)n1 [Example 92, N-methyl-1-[4-(2-methylpyrazol-3-yl)phthalazin-1-yl]-N-[(2-methylsulfanylpyrimidin-4-yl)methyl]piperidin-4-amine]
24 | > 200 | CN(Cc1ccnnc1)C1CCN(c2nnc(-c3ccnn3C)c3ccccc23)CC1 [Example 91, N-methyl-1-[4-(2-methylpyrazol-3-yl)phthalazin-1-yl]-N-(pyridazin-4-ylmethyl)piperidin-4-amine]
25 | > 200 | CN(Cc1ccc(F)cc1C(F)(F)F)C1CCN(c2nnc(N3CCOCC3)c3ccccc23)CC1 [Example 144, N-[[4-fluoro-2-(trifluoromethyl)phenyl]methyl]-N-methyl-1-(4-morpholinophthalazin-1-yl)piperidin-4-amine]
26 | > 200 | Cc1cc(-c2nnc(N3CCC(NCc4ccc(F)cc4C(F)(F)F)CC3)c(C)c2C)ccn1 [Example 122, 1-[4,5-dimethyl-6-(2-methyl-4-pyridyl)pyridazin-3-yl]-N-[[4-fluoro-2-(trifluoromethyl)phenyl]methyl]piperidin-4-amine]
27 | 10 to 200 | Cn1nccc1-c1nnc(N2CCC(NCc3ccc(F)cc3C(F)(F)F)CC2)c2c1CCC2 [Example 148, N-[[4-fluoro-2-(trifluoromethyl)phenyl]methyl]-1-[1-(2-methylpyrazol-3-yl)-6,7-dihydro-5H-cyclopenta[d]pyridazin-4-yl]piperidin-4-amine]
28 | 10 to 200 | Cn1nccc1-c1nnc(N2CCC(NS(=O)(=O)c3ccc(F)cc3F)CC2)c2c1CCC2 [Example 141, 2,4-difluoro-N-[1-[1-(2-methylpyrazol-3-yl)-6,7-dihydro-5H-cyclopenta[d]pyridazin-4-yl]-4-piperidyl]benzenesulfonamide]
29 | 10 to 200 | Cn1nccc1-c1nnc(N2CCC(NCc3ccc(F)nc3C(F)(F)F)CC2)c2ccccc12 [Example 165, N-[[6-fluoro-2-(trifluoromethyl)-3-pyridyl]methyl]-1-[4-(2-methylpyrazol-3-yl)phthalazin-1-yl]piperidin-4-amine]
30 | < 10 | CN(C(=O)Nc1ccc(F)cc1C(F)(F)F)C1CCN(c2nnc(-c3ccnn3C)c3ncccc23)CC1 [Example 80, 3-[4-fluoro-2-(trifluoromethyl)phenyl]-1-methyl-1-[1-[8-(2-methylpyrazol-3-yl)pyrido[2,3-d]pyridazin-5-yl]-4-piperidyl]urea]

From patent US9579319B2 (Redx Pharma PLC, priority 2013, dated 2017)
